From US20170143674A1, “Use of Glutaryl Histamine for the Treatment of Respiratory Tract Diseases” (LTD "VALENTA-INTELLEKT", priority 2011, published 2017)
Entries after “also recorded” stand apart in the source; their conditions may differ.

Tests used:
[1] = test system: acute bronchitis induced by endotracheal administration of lipopolysaccharide; experiment: acute bronchitis (bronchiolitis/pneumonia) model, endotracheal LPS; type: in vivo, Wistar rats
From the text: The therapeutic effectiveness of glutaryl histamine was studied on an experimental model of acute bronchitis. The therapeutic effectiveness of glutaryl histamine was studied on an experimental model of acute bronchitis induced by endotracheal administration of lipopolysaccharide to laboratory Wistar rats through a probe. […] After administration of LPS, from 5 to 7 motions by the syringe plunger was made for better distribution of LPS in the pulmonary tract. After this manipulation, the animals were monitored for 2 hours to reveal complications after the administration.
Dexamethasone in a dose of 5 mg/kg was used a reference medicament.
Histology and morphometry. Respiratory and air pathways were studied on samples taken from the middle third (hilum of the lung) and apexes of the left lung. […] Material for the analysis of the lung histological structure in all animals was taken from the hilum and apex of the lung to study respiratory and air pathways.
The time history of changes in lungs after administration of LPS are shown in FIGS. 1, 2 and 3, wherein the changes are expressed by semi-quantitative scores (intensity of interstitial edema expressed by scores) or by a percentage ratio of the injured part of the lung.

[2] = test system: lacunar tonsillitis; experiment: open randomized comparative trial in lacunar tonsillitis; type: in vivo, human; settings: 90 mg per day for 5 days with standard therapy
Experimental: The effectiveness of glutaryl histamine for the treatment of lacunar tonsillitis was studied in an open randomized and comparative trial.
The trial included 60 patients which were under medical supervision. When admitted to hospital, patients were randomized into two groups by a random sampling technique. The patients of the first group (30 subjects) received glutaryl histamine in an amount of 90 mg (1 pill) per day for 5 days (450 mg course dose) and standard therapy comprising antibacterial medicaments (penicillin 1 g I.M. 4 times a day or cefasoline 1 g I.M. 3 times a day for 7 days) and nosotropic agents. The patients of the second group (30 subjects) received only standard therapy.
Laboratory analysis included: general blood test, determination of C-reactive protein, and microbiological analysis of tonsil smears. Laboratory data were analyzed on day 6 of the treatment. […]
Statistical treatment of the obtained results. Values of quantitative variables were expressed as M±SE, wherein M is a mean value, and SE is a standard error of the mean. […]

[3] = test system: acute respiratory distress syndrome (ARDS); experiment: ARDS model, single intravenous LPS 7.5 mg/kg; type: in vivo, rat; settings: for Me (%) (mortality rate): 8 days; for Died: total number 10
Experimental: (§1) Since an intravenous administration of lipopolysaccharide (LPS) to animals is one of the most acceptable models for studying the pathogenesis, pathomorphological changes and consequences of acute respiratory distress syndrome, this model was used in this example. Tested medicament glutaryl histamine was administered for 9 days after the first administration of LPS, i.e. glutaryl histamine was administered for 12 days in total (3 days before the induction of ARDS and 9 days during and after the induction). The exception was dexamethasone since, according to the literature data and the information leaflet, long-time administration of steroidal anti-inflammatory agents can cause severe side effects. For this reason, dexamethasone was administered according to the following schedule: 49, 24 and 1 hour before the induction of ARDS in a dose of 5 mg/kg, for 3 days after the first injection of LPS in the same dose; the medicament was withdrawn by a gradual dose reduction for 3 days. Thus, dexamethasone was administered 9 times.
The mortality rate among the animals administered LPS in an intravenous dose of 7.5 mg/kg was 70% for 8 days. The most of them (60%) died on the first day, in particular, from 4 to 12-16 hours after the injection of LPS. The mortality rate among the animals administered glutaryl histamine was different from the rate in animals treated with dexamethasone; however, most of them also died on the first day, about in the same time period (Table 11).

[4] = test system: acute respiratory distress syndrome (ARDS); experiment: ARDS model, multiple-dose intravenous LPS (LD30); type: in vivo, rat; settings: for Died: total number 24
Experimental: as §1
At this step, animals were administered LPS at more lower dose, but for longer time period. They were received 2 mg/kg on days 1 and 2, and 3 and 4 mg/kg on days 3 and 4, respectively. The maximum mortality rate, similarly to the single-dose administration of LD70, was on the first day. On eighth day, mortality reached 33%.
The second step of the experiment comprises the evaluation of both the mortality rate of the animals with calculation of the protective index and narrower indexes used for determination of a specific protection provided by glutaryl histamine in ARDS. As was disclosed above, a lower dose of LPS (LD30) was used at the second stage. In addition, LPS was administered every day for 4 days. This method of administration was aimed at achieving the maximum disorder exactly in the lung for subsequent evaluation of possible protective action of glutaryl histamine.

## O=C(O)CCCC(=O)NCCc1c[nH]cn1 [glutaryl histamine]
[1]; 27 mg/kg, 24 hours after administration of LPS
  Peribronchial infiltration and interstitial edema (lung sections): Reduction
[1]; 27 mg/kg, 72 hours after administration of LPS
  Peri- and intrabronchial infiltration and interstitial edema (lung sections): Reduction
[1]; 27 mg/kg, first and third days, compared with the control group
  interstitial edema: reduction
[1]; 27 mg/kg, starting from the second day up to the third day
  alveolar infiltration: significant reduction
[1]; all time points, each tested dose
  Hemorrhagic symptoms in lungs: significantly weaker compared to the control group and the group of dexamethasone
[2]
  tolerability / undesirable symptoms: well tolerated; also recorded: none of the cases had undesirable symptoms
[3]; Glutaryl histamine 0.5 mg/kg
  IP (%) (protective index): 57.1%
  S (%) (survival rate): 70%
  Me (%) (mortality rate): 30%
  Died: 3
[3]; Glutaryl histamine 3 mg/kg
  IP (%) (protective index): 28.6%
  S (%) (survival rate): 50%
  Me (%) (mortality rate): 50%
  Died: 5
[3]; Glutaryl histamine 9 mg/kg
  IP (%) (protective index): 42.9%
  S (%) (survival rate): 60%
  Me (%) (mortality rate): 40%
  Died: 4
[3]; Glutaryl histamine 18 mg/kg
  IP (%) (protective index): 28.6%
  S (%) (survival rate): 50%
  Me (%) (mortality rate): 50%
  Died: 5
[3]; Glutaryl histamine 27 mg/kg
  IP (%) (protective index): 71.4%
  S (%) (survival rate): 80%
  Me (%) (mortality rate): 20%
  Died: 2
[3]; Glutaryl histamine 45 mg/kg
  IP (%) (protective index): 28.6%
  S (%) (survival rate): 50%
  Me (%) (mortality rate): 50%
  Died: 5
[4]; Glutaryl histamine 0.5 mg/kg
  IP (%) (protective index): 62.5%
  M (%) (mortality rate): 12.5%
  S (%) (survival rate): 87.5%
  Died: 3
[4]; Glutaryl histamine 27 mg/kg
  IP (%) (protective index): 75%
  M (%) (mortality rate): 8.3%
  S (%) (survival rate): 91.7%
  Died: 2
[4]; Glutaryl histamine 27 mg/kg, listed as Glutaryl histamine
  IP (%) (protective index): 75.0%
